Data published in article PMC9747717, “A novel small molecule inhibitor of human Drp1” (Scientific Reports, 2022).
Several values for one entry are separate records, joined by “and”; a condition that tells them apart may be missing. Equal values may be shown once.

What was measured:
[1] = system: human iPSC-derived cardiomyocytes; assay: Doxorubicin-induced cardiomyocyte injury, LDH release; type: cell-based; settings: DRP1i27 50 µM in combination with doxorubicin 5 µM, 2 days
Experimental: Cardiomyocytes were derived from human induced pluripotent stem cells (iPSCs, CERA007c6 cell line) as previously described with modifications[26],[27]. Briefly, human iPSCs were seeded onto Matrigel (Corning) coated plates at a density of 1.25 × 10^5 cells/cm^2 in TeSR-E8 medium supplemented with 10 μM Y−27632 (Abcam). After 48 h (cells ~ 90% confluent) (day 0), medium was replaced with RPMI-1640 basal medium (Thermo Fisher Scientific) containing B-27 without insulin supplement (Thermo Fisher Scientific), growth factor reduced Matrigel (1:60 dilution) and 10 μM CHIR99021 (Cayman Chemical). At day 1, medium was replaced with RPMI 1640 basal medium containing B-27 without insulin supplement. […]
Enriched cardiomyocytes were replated onto Matrigel-coated 48-well plates at a cell density of 5 × 10^4 cells/cm^2 for 2 days. […] LDH levels in the conditioned media were assessed using a colorimetric CyQUANT LDH Cytotoxicity Assay Kit (Thermo Fisher Scientific) according to manufacturer’s protocol. […] Following the incubation at room temperature for 30 min in the dark, 50 μL of Stop Solution was added and absorbance was measured at 490 nm and 680 nm on a microplate spectrophotometer (Bio-Rad). All readings were then corrected for the background signal from the culture media and expressed as fold change.

[2] = biological target: T1, human Drp1 isoform 3 (Homo sapiens, UniProt O00429); assay: Surface plasmon resonance (SPR) binding; settings: human Drp1 isoform 3, 25 °C, 2% DMSO
T1 construct: His tag; made in house; host or cells: E. coli Rosetta (DE3), pET21b vector
T1 sequence (O00429 1-699 isoform O00429-4): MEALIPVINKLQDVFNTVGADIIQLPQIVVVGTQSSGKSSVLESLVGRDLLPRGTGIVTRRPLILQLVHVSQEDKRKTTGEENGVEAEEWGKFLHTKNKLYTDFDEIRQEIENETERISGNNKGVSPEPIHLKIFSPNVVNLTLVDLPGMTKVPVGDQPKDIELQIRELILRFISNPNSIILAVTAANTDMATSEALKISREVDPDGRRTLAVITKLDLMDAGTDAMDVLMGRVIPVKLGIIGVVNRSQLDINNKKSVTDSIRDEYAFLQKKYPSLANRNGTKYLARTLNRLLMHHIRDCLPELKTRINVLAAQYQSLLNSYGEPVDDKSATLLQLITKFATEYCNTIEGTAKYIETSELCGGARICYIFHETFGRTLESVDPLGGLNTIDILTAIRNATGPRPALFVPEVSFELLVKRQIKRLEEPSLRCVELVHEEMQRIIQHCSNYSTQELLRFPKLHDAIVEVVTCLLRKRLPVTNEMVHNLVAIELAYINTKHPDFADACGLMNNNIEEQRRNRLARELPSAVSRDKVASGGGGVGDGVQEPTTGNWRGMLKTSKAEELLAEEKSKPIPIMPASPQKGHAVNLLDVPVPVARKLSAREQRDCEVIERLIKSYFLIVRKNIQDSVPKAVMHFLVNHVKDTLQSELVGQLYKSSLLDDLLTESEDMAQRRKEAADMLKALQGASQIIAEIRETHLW
Experimental: The recombinant human Drp1 protein (His-tagged human Drp1 isoform 3, kindly provided by Professor Michael Ryan, Monash University, Australia) was generated as described previously. Briefly, cDNA for human Drp1 (isoform 3) was cloned into pET21b vector and transformed in Rosetta (DE3) competent cells (Novagen, MA, Merck Millipore). Transformed cells were propagated in Luria–Bertani broth and protein expression was initiated by the addition of 0.5 mM isopropyl β-D-1-thiogalactopyranoside. […]
All SPR experiments were performed on a Biacore T200 instrument (GE Healthcare Life Sciences, Uppsala, Sweden) at 25 °C in the presence of HEPES buffered saline containing 20 mM phosphate (pH 7.5), 137 mM NaCl, 2.7 mM KCl and 0.05% Tween-20 (HBS + P). […] Sensor surface was activated with 1:1 mixture of 0.4 M EDC and 0.1 M NHS for 7 min, followed by incremental injections of the protein to reach ~ 8000 RU (flow rate 10 μL/minute) for a calculated maximum analyte binding capacity (Rmax) of 30–50 RU. […]
Compounds were dissolved in 100% dimethyl sulfoxide (DMSO) and then added to HBS + P at a final DMSO concentration of 2%. […] SPR results were analysed using the Biacore T200 Evaluation Software v.1.

[3] = Dynamic light scattering (DLS) compound aggregation threshold; type: physicochemical
Experimental: Identification of compound aggregation threshold was performed using DLS Zetasizer Nano ZS (Malvern Pananalytical, Worcestershire, UK). 100 µL of samples were measured in low-volume plastic micro cuvettes (BrandTech Scientific, CT, USA) at 25 °C using default size measurement settings. […] Mdivi-1 and DRP1i27 were serially diluted three-fold from 500 µM until the volume distribution of particle size was similar to that of the DMSO control. To specifically determine aggregation threshold, further dilution was carried out between concentrations where aggregation was first observed.

## Cc1nc[nH]c1CN1C[C@@H]2CC[C@H](C1)N(Cc1ccc(-c3cc[nH]n3)o1)C2 [DRP1i27]
[1]
  LDH release: 3.13 ± 0.16 fold change
[2]
  Kd: 286 µM and 287 µM
[3]; PBS, 2% DMSO
  aggregation threshold: 130 µM
[3]; PBS, 5% DMSO
  aggregation threshold: 350 µM
[3]; with 0.05% Tween-20, DMSO content not specified
  aggregation threshold: at least 500 µM
